Data from ChEMBL document CHEMBL4321812, “Structure-based rational design of staurosporine-based fluorescent probe with broad-ranging kinase affinity for kinase panel application” (Bioorg Med Chem Lett, 2019).

Experiments:
[1] = target: Proto-oncogene tyrosine-protein kinase receptor Ret (Homo sapiens, UniProt P07949); assay: Binding affinity to recombinant N-terminal His-FLAG-GST-tagged RET (unknown origin) (658 to 1114 residues) expressed in baculovirus infected Sf9 insect cells incubated for 1 hr by TR-FRET assay
[2] = target: Tyrosine-protein kinase Tec (Homo sapiens, UniProt P42680); assay: Binding affinity to recombinant human N-terminal GST-tagged TEC (359 to 631 residues) expressed in baculovirus expression system using Srctide as substrate incubated for 1 hr by TR-FRET assay
Chain of Tyrosine-protein kinase Tec (P42680 whole entry, the tested form may be a part): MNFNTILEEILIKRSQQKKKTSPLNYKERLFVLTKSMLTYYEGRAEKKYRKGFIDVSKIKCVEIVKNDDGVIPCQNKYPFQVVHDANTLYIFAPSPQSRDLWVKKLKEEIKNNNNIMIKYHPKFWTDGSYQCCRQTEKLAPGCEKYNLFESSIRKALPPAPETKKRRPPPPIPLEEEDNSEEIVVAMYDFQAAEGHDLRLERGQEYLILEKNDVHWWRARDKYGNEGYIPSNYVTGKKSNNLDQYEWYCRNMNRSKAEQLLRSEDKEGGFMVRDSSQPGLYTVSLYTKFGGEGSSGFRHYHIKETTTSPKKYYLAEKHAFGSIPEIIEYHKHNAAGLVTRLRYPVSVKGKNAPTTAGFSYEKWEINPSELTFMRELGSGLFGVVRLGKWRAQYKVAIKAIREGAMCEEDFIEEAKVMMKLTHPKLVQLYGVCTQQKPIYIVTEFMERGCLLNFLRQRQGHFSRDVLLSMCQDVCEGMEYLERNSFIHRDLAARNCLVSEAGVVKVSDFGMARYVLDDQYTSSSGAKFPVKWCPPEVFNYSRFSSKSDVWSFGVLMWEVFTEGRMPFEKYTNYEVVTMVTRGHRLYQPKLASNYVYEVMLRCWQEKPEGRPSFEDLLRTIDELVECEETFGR

[3] = target: Tyrosine-protein kinase BTK (Homo sapiens, UniProt Q06187); assay: Binding affinity to recombinant human full-length N-terminal GST-tagged BTK expressed in baculovirus expression system using srctide as substrate incubated for 1 hr by TR-FRET assay
[4] = target: Calcium/calmodulin-dependent protein kinase type II subunit beta (Homo sapiens, UniProt Q13554); assay: Binding affinity to recombinant human full length N-terminal GST-tagged CAMK2B expressed in baculovirus expression system using GS peptide as substrate incubated for 1 hr in presence of calmodulin by TR-FRET assay
LIM domain kinase 1 = LIM domain kinase 1 (Homo sapiens, UniProt P53667); assay: Binding affinity to truncated human N-terminal GST-tagged LIMK1 (285 to 638 residues) expressed in baculovirus expression system using cofilin2 as substrate incubated for 1 hr by TR-FRET assay
Chain of LIM domain kinase 1 (P53667 whole entry, the tested form may be a part): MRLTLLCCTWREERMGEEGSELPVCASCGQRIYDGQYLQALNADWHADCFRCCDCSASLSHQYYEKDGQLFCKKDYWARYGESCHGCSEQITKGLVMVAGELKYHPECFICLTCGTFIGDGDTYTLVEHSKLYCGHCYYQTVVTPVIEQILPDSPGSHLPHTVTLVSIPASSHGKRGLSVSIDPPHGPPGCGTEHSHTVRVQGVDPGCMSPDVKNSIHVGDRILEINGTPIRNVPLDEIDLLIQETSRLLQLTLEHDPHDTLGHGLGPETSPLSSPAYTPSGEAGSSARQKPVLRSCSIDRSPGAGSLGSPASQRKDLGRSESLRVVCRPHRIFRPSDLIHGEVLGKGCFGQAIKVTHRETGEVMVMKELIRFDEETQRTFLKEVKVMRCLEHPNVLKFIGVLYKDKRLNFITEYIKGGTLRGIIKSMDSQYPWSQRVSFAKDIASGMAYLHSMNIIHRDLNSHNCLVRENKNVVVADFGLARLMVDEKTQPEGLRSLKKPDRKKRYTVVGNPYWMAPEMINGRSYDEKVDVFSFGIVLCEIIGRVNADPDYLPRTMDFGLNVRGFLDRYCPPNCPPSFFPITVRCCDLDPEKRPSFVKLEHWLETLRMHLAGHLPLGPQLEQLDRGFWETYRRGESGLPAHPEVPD

[5] = target: Serine/threonine-protein kinase 26 (Homo sapiens, UniProt Q9P289); assay: Binding affinity to recombinant full-length N-terminal His-FLAG-tagged MST4 (unknown origin) expressed in baculovirus infected Sf9 insect cells incubated for 1 hr by TR-FRET assay
[6] = target: Dual specificity protein kinase CLK4 (Homo sapiens, UniProt Q9HAZ1); assay: Binding affinity to recombinant human full length N-terminal GST-tagged CLK4 expressed in baculovirus expression system incubated for 1 hr by TR-FRET assay
[7] = target: Inhibitor of nuclear factor kappa-B kinase subunit epsilon (Homo sapiens, UniProt Q14164); assay: Binding affinity to recombinant full-length N-terminal His-FLAG-GST-tagged IKBKE (unknown origin) expressed in baculovirus infected Sf9 insect cells incubated for 1 hr by TR-FRET assay
[8] = target: Serine/threonine-protein kinase N1 (Homo sapiens, UniProt Q16512); assay: Binding affinity to recombinant full-length N-terminal His-FLAG-GST-tagged PKN1 (unknown origin) expressed in baculovirus infected Sf9 insect cells incubated for 1 hr by TR-FRET assay
[9] = target: AMP-activated protein kinase (AMPK) alpha-1/beta-1/gamma-1 (Homo sapiens, UniProt P54619+Q13131+Q9Y478); assay: Binding affinity to recombinant human full-length GST N-Terminal tagged-AMPK alpha1/N-Terminal GST tagged-AMPK beta1/N-Terminal his-tagged AMPK gamma1 expressed in baculovirus expression system incubated for 1 hr by TR-FRET assay
[10] = target: Fibroblast growth factor receptor 4 (Homo sapiens, UniProt P22455); assay: Binding affinity to recombinant N-terminal His-FLAG-GST-tagged FGFR4 (unknown origin) (460 to 802 residues) expressed in baculovirus infected Sf9 insect cells incubated for 1 hr by TR-FRET assay
Chain of Fibroblast growth factor receptor 4 (P22455 whole entry, the tested form may be a part): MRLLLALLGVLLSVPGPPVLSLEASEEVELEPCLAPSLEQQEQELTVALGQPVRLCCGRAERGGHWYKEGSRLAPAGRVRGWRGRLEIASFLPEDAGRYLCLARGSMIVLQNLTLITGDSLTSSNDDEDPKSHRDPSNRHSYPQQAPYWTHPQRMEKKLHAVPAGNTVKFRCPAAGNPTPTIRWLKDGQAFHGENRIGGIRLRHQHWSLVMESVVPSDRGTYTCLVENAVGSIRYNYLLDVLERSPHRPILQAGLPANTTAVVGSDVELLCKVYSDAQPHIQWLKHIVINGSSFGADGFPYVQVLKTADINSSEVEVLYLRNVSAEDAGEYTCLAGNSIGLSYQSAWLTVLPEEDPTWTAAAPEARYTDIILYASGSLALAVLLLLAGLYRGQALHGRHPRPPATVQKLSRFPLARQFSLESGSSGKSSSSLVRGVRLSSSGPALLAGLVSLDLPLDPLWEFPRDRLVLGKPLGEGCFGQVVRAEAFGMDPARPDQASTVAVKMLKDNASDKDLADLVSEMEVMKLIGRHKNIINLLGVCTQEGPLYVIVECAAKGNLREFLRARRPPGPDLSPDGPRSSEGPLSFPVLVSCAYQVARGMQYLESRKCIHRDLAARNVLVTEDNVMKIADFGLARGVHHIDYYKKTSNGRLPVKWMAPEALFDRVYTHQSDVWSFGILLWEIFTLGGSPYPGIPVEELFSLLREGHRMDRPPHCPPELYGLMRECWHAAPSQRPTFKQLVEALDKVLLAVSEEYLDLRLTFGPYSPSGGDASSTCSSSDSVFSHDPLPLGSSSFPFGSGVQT

[11] = target: Leukocyte tyrosine kinase receptor (Homo sapiens, UniProt P29376); assay: Binding affinity to recombinant full-length N-terminal His-FLAG-GST-tagged LTK (unknown origin) (498 to 796 residues) expressed in baculovirus infected Sf9 insect cells incubated for 1 hr by TR-FRET assay
[12] = target: Homeodomain-interacting protein kinase 3 (Homo sapiens, UniProt Q9H422); assay: Binding affinity to recombinant N-terminal His-FLAG-GST-tagged HIPK3 (unknown origin) (161 to 562 residues) expressed in baculovirus infected Sf9 insect cells incubated for 1 hr by TR-FRET assay
Chain of Homeodomain-interacting protein kinase 3 (Q9H422 whole entry, the tested form may be a part): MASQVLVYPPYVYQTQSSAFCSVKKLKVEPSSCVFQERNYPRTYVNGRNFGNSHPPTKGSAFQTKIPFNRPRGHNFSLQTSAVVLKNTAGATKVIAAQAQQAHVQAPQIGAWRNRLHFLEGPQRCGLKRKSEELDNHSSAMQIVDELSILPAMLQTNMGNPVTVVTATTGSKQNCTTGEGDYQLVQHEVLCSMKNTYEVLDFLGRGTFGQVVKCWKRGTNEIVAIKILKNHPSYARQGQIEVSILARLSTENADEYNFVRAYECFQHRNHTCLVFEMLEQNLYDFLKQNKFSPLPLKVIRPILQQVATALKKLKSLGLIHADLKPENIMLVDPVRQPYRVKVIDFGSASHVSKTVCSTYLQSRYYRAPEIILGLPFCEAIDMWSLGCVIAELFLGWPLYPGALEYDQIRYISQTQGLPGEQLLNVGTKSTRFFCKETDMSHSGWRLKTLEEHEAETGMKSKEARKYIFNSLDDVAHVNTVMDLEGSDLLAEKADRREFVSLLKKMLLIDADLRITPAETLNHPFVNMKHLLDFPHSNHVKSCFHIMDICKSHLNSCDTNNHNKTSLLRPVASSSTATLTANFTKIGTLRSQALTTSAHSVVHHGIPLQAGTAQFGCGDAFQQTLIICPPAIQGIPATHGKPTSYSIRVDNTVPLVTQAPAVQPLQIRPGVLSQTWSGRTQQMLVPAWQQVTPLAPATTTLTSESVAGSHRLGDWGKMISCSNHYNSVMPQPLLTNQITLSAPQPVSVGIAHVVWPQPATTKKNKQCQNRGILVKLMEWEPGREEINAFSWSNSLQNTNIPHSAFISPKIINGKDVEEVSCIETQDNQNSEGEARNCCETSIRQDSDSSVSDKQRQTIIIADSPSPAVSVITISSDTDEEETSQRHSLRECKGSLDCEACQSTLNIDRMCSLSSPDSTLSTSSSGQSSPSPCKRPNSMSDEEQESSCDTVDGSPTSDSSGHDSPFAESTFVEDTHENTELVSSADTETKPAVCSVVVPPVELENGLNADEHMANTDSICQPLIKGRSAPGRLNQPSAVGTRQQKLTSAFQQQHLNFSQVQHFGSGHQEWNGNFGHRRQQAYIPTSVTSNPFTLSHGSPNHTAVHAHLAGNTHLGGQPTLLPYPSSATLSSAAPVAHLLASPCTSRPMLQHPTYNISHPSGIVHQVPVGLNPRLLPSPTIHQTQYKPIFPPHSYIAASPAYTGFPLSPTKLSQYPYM

[13] = target: Tyrosine-protein kinase Fgr (Homo sapiens, UniProt P09769); assay: Binding affinity to recombinant full-length N-terminal His-FLAG-tagged FGR (unknown origin) expressed in baculovirus infected Sf9 insect cells incubated for 1 hr by TR-FRET assay
Chain of Tyrosine-protein kinase Fgr (P09769 whole entry): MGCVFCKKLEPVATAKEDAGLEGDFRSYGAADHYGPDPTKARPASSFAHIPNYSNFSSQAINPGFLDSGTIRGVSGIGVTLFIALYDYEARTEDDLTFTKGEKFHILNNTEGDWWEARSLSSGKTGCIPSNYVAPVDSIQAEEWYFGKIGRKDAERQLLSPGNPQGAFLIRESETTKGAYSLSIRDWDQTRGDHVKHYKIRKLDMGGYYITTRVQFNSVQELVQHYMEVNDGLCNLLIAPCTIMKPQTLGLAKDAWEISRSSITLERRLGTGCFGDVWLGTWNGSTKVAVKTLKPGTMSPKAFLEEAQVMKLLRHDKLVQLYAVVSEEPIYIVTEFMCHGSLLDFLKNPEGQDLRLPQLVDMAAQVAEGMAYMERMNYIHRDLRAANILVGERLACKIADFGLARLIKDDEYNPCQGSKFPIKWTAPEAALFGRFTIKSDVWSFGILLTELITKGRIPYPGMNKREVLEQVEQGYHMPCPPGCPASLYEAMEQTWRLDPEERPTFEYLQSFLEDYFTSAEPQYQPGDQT

[14] = target: Serine/threonine-protein kinase PAK 4 (Homo sapiens, UniProt O96013); assay: Binding affinity to recombinant human full-length N-terminal GST-tagged PAK4 expressed in baculovirus expression system using SGKtide as substrate incubated for 1 hr by TR-FRET assay
[15] = target: Mitogen-activated protein kinase kinase kinase kinase 5 (Homo sapiens, UniProt Q9Y4K4); assay: Binding affinity to recombinant full-length N-terminal His-FLAG-GST-tagged MAP4K5 (unknown origin) expressed in baculovirus infected Sf9 insect cells incubated for 1 hr by TR-FRET assay
[16] = target: Macrophage colony-stimulating factor 1 receptor (Homo sapiens, UniProt P07333); assay: Binding affinity to recombinant N-terminal His-FLAG-GST-tagged CSF1R (unknown origin) (538 to 972 residues) expressed in baculovirus infected Sf9 insect cells incubated for 1 hr by TR-FRET assay
[17] = target: Serine/threonine-protein kinase DCLK3 (Homo sapiens, UniProt Q9C098); assay: Binding affinity to recombinant full-length N-terminal His-FLAG-tagged DCLK3 (unknown origin) expressed in baculovirus infected Sf9 insect cells incubated for 1 hr by TR-FRET assay
[18] = target: Tyrosine-protein kinase ABL2 (Homo sapiens, UniProt P42684); assay: Binding affinity to recombinant full-length N-terminal His-FLAG-GST-tagged ABL2 (unknown origin) (2 to 52 and 74 to 1182 residues) expressed in baculovirus infected Sf9 insect cells incubated for 1 hr by TR-FRET assay
[19] = target: Tyrosine-protein kinase Yes (Homo sapiens, UniProt P07947); assay: Binding affinity to recombinant full-length N-terminal His-FLAG-GST-tagged YES1 (unknown origin) expressed in baculovirus infected Sf9 insect cells incubated for 1 hr by TR-FRET assay
[20] = target: Ribosomal protein S6 kinase alpha-1 (Homo sapiens, UniProt Q15418); assay: Binding affinity to recombinant full length human N-terminal GST-tagged RPS6KA1 expressed in baculovirus expression system using S6K peptide as substrate incubated for 1 hr by TR-FRET assay
Chain of Ribosomal protein S6 kinase alpha-1 (Q15418 whole entry, the tested form may be a part): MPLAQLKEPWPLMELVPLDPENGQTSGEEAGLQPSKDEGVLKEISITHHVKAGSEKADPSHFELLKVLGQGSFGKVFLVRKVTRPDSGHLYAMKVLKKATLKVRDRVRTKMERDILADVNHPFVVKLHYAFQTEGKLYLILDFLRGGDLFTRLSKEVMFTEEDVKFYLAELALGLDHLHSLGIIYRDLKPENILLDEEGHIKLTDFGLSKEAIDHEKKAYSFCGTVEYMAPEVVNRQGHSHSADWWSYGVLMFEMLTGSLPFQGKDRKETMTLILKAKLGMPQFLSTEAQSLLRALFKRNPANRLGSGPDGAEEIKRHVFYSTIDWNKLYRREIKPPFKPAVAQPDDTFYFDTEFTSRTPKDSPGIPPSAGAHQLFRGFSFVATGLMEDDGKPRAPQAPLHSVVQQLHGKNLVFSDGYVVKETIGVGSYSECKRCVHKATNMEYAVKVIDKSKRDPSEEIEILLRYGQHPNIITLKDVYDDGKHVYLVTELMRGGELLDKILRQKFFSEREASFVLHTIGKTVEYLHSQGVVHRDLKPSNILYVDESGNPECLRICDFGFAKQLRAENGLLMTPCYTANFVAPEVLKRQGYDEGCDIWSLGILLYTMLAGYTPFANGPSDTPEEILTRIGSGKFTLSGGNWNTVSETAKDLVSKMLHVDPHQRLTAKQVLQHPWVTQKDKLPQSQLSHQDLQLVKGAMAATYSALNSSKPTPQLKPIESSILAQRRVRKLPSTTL

[21] = target: Citron Rho-interacting kinase (Homo sapiens, UniProt O14578); assay: Binding affinity to recombinant full-length N-terminal His-FLAG-GST-tagged CIT (unknown origin) (1 to 449 residues) expressed in baculovirus infected Sf9 insect cells incubated for 1 hr by TR-FRET assay
[22] = target: Dual specificity protein kinase CLK2 (Homo sapiens, UniProt P49760); assay: Binding affinity to recombinant full-length N-terminal His-FLAG-GST-tagged CLK2 (unknown origin) expressed in baculovirus infected Sf9 insect cells incubated for 1 hr by TR-FRET assay
Chain of Dual specificity protein kinase CLK2 (P49760 whole entry, the tested form may be a part): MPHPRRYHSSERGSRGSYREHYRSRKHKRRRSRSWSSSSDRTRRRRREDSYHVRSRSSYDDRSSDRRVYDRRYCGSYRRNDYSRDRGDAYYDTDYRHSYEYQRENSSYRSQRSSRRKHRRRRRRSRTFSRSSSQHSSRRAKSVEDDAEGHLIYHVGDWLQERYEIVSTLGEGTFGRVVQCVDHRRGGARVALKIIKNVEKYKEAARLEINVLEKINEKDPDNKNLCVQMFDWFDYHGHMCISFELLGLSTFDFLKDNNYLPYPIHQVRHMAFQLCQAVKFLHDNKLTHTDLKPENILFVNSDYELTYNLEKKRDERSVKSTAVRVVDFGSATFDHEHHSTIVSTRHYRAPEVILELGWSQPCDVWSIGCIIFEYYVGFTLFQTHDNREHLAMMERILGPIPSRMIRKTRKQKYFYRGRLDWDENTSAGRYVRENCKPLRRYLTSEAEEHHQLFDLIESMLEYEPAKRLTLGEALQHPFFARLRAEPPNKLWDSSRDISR

[23] = target: Vascular endothelial growth factor receptor 3 (Homo sapiens, UniProt P35916); assay: Binding affinity to recombinant N-terminal His-FLAG-GST-tagged FLT4 (unknown origin) (798 to 1298 residues) expressed in baculovirus infected Sf9 insect cells incubated for 1 hr by TR-FRET assay

SMILES	Kd [1] [nM]	Kd [2] [nM]	Kd [3] [nM]	Kd [4] [nM]	Kd (LIM domain kinase 1) [nM]	Kd [5] [nM]	Kd [6] [nM]	Kd [7] [nM]	Kd [8] [nM]	Kd [9] [nM]	Kd [10] [nM]	Kd [11] [nM]	Kd [12] [nM]	Kd [13] [nM]	Kd [14] [nM]	Kd [15] [nM]	Kd [16] [nM]	Kd [17] [nM]	Kd [18] [nM]	Kd [19] [nM]	also measured
CO[C@@H]1[C@H](NCCOCCOCCOCCNC(=O)CCC2=[N+]3C(=Cc4c(C)cc(C)n4[B-]3(F)F)C=C2)C[C@H]2O[C@]1(C)n1c3ccccc3c3c4c(c5c6ccccc6n2c5c31)C(=O)NC4	40	1060	374	19	6	687	90	58	11	13	718	193	798	101	5	87	279	60	531	601	Kd [20]: 16 nM; Kd [21]: 747 nM; Kd [22]: 318 nM; Kd [23]: 61 nM
CO[C@@H]1[C@H](N(C)CCOCCOCCOCCNC(=O)CCC2=[N+]3C(=Cc4c(C)cc(C)n4[B-]3(F)F)C=C2)C[C@H]2O[C@]1(C)n1c3ccccc3c3c4c(c5c6ccccc6n2c5c31)C(=O)NC4	54	1460	437	12	32	983	81	44	6	15	1490	193	1030	119	6	377	324	104	947	> 2000	Kd [20]: 36 nM; Kd [21]: 710 nM; Kd [22]: 396 nM; Kd [23]: 78 nM
